Laboratory results: patent US11459329B2, “Imidazopyridazine and imidazopyridine compounds and uses thereof” (Incyte Corporation, priority 2018, dated 2022)

Each compound was assayed against ALK2 (aa 147-end) (Homo sapiens (Human), UniProt Q04771) (assay: ALK2 HTRF Assay). Conditions: not given.
Type: biochemical
Method: The enzymatic assays were conducted in white 384-well polystyrene plates in a final volume of 8 μL. The inhibitors were serially diluted in DMSO and added to the plate wells prior to addition of the other reaction components. The assays were carried out at 25° C. in the assay buffer (50 mM HEPES, pH 7.0, 10% Glycerol, 0.01% Brij50, 10 mM MgCl2, 1 mM EGTA, 5 mM DTT, and 0.01% BSA), containing 50 nM LANCE Ultra ULight™-DNA Topoisomerase 2-alpha peptide (Perkin Elmer TRF0130), and 3 μM ATP. The final concentration of DMSO in the assay was 1% and the enzyme concentration was 0.5 nM for ALK2. […] […] IC50 determination was performed by fitting percent control activity versus the log of the inhibitor concentration using the IDBS XLFit and GraphPad Prism 5.0 software.

Sequence of ALK2 (aa 147-end) (Q04771 147-509): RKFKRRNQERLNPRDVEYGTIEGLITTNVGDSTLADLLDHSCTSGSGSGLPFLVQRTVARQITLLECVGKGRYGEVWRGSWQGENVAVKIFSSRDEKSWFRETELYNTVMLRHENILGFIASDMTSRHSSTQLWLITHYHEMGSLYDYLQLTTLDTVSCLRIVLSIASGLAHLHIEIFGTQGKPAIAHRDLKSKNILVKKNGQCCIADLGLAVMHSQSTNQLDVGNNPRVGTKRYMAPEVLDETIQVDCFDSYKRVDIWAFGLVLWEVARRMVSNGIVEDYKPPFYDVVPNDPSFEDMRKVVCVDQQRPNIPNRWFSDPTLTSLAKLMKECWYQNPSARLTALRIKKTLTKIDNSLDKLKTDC

SMILES	IC50 [nM]
COCc1nn2c(-c3ccnc4ccccc34)cnc2cc1-c1ccc(N2CCNCC2)cc1 [Example 8, 4-(6-(Methoxymethyl)-7-(4-(piperazin-1-yl)phenyl)imidazo[1,2-b]pyridazin-3-yl)quinoline]	1 to 5

Same assay, conditions: 3 μM ATP, 0.5 nM ALK2, 2 hr, 25° C.; read-out: ALK2 IC50

IC50 [nM]	SMILES
< 1	Cc1nn2c(-c3ccnc4ccccc34)cnc2cc1-c1ccc(N2CCNCC2)cc1 [Example 1, 4-(6-Methyl-7-(4-(piperazin-1-yl)phenyl)imidazo[1,2-b]pyridazin-3-yl)quinoline]
< 1	COC(=O)c1nn2c(-c3ccnc4ccccc34)cnc2cc1-c1ccc(N2CCNCC2)cc1 [Example 2, Methyl 7-(4-(piperazin-1-yl)phenyl)-3-(quinolin-4-yl)imidazo[1,2-b]pyridazine-6-carboxylate]
5 to 100	C[C@]1(O)CC[C@H](NC(=O)c2nn3c(-c4ccnc5ccccc45)cnc3cc2-c2ccc(N3CCNCC3)cc2)CC1 [Example 3, N-((1R,4R)-4-Hydroxy-4-methylcyclohexyl)-7-(4-(piperazin-1-yl)phenyl)-3-(quinolin-4-yl)imidazo[1,2-b]pyridazine-6-carboxamide]
5 to 100	CCOC(=O)N1CCN(C(=O)c2nn3c(-c4ccnc5ccccc45)cnc3cc2-c2ccc(N3CCNCC3)cc2)CC1 [Example 4, Ethyl 4-(7-(4-(piperazin-1-yl)phenyl)-3-(quinolin-4-yl)imidazo[1,2-b]pyridazine-6-carbonyl)piperazine-1-carboxylate]
5 to 100	NC(=O)c1nn2c(-c3ccnc4ccccc34)cnc2cc1-c1ccc(N2CCNCC2)cc1 [Example 5, 7-(4-(Piperazin-1-yl)phenyl)-3-(quinolin-4-yl)imidazo[1,2-b]pyridazine-6-carboxamide]
< 1	N#Cc1nn2c(-c3ccnc4ccccc34)cnc2cc1-c1ccc(N2CCNCC2)cc1 [Example 6, 7-(4-(piperazin-1-yl)phenyl)-3-(quinolin-4-yl)imidazo[1,2-b]pyridazine-6-carbonitrile]
< 1	OCc1nn2c(-c3ccnc4ccccc34)cnc2cc1-c1ccc(N2CCNCC2)cc1 [Example 7, (7-(4-(Piperazin-1-yl)phenyl)-3-(quinolin-4-yl)imidazo[1,2-b]pyridazin-6-yl)methanol]
1 to 5	Cc1nn2c(-c3ccnc4cc(-c5ccncc5)ccc34)cnc2cc1-c1cnn([C@H]2CC[C@H](O)CC2)c1 [Example 10, (trans)-4-(4-(6-Methyl-3-(7-(pyridin-4-yl)quinolin-4-yl)imidazo[1,2-b]pyridazin-7-yl)-1H-pyrazol-1-yl)cyclohexan-1-ol]
< 1	Cc1nn2c(-c3ccnc4cc(-c5ccncc5)ccc34)cnc2cc1-c1ccc(N2CCN(CCO)CC2)cc1 [Example 11, 2-(4-(4-(6-Methyl-3-(7-(pyridin-4-yl)quinolin-4-yl)imidazo[1,2-b]pyridazin-7-yl)phenyl)piperazin-1-yl)ethan-1-ol]
5 to 100	Cc1nn2c(-c3ccnc4cc(-c5ccncc5)ccc34)cnc2cc1-c1ccc(N2CCN(C)CC2=O)cc1 [Example 12, 4-Methyl-1-(4-(6-methyl-3-(7-(pyridin-4-yl)quinolin-4-yl)imidazo[1,2-b]pyridazin-7-yl)phenyl)piperazin-2-one]
5 to 100	Cc1nn2c(-c3ccnc4cc(-c5ccncc5)ccc34)cnc2cc1-c1cccc(N2CCN(C)CC2)c1 [Example 13, 4-(6-Methyl-7-(3-(4-methylpiperazin-1-yl)phenyl)imidazo[1,2-b]pyridazin-3-yl)-7-(pyridin-4-yl)quinolone]
1 to 5	Cc1nn2c(-c3ccnc4cc(-c5ccncc5)ccc34)cnc2cc1-c1ccc(C(=O)N2CCN(C)CC2)cc1 [Example 14, (4-(6-Methyl-3-(7-(pyridin-4-yl)quinolin-4-yl)imidazo[1,2-b]pyridazin-7-yl)phenyl)(4-methylpiperazin-1-yl)methanone]
1 to 5	Cc1nn2c(-c3ccnc4cc(-c5ccncc5)ccc34)cnc2cc1-c1ccc(CN2CCC[C@H]2C)c(F)c1 [Example 15, (R)-4-(7-(3-fluoro-4-((2-methylpyrrolidin-1-yl)methyl)phenyl)-6-methylimidazo[1,2-b]pyridazin-3-yl)-7-(pyridin-4-yl)quinoline]
